How the values were obtained:
[1] = test system: permeabilised HepG2 cells; assay: Calcium retention capacity (CRC) assay in permeabilised HepG2 cells (MPTP opening); format: cell-based, human; set-up: CRC [10 μM]: unit not given here; conditions: compound at 10 μM; for CRC [10 μM]: digitonin permeabilised HepG2 cells; for CRC [10 μM] (ratio vs CsA): normalised to cyclosporin A, value in brackets
Method: The use of permeabilised cells means that inhibitory compounds that may not normally enter non-permeabilised cells are more likely to be active.
The calcium retention capacity (CRC) is a measure of the capability of mitochondria to retain calcium, primarily in the form of calcium phosphates, in the mitochondrial matrix.
In a CRC assay, the calcium indicator Calcium Green-5N (InVitrogen) is utilized. […] The assay is carried out in HepG2 (human hepatocellular carcinoma) cells which are digitonin permeabilized. Trains of calcium pulses (typically 5 μM additions) are added which results in a sudden increase in fluorescence which is then reduced by mitochondrial buffering. The cells will reach a point at which the calcium addition is no longer buffered, an indication that the MPTP has opened (mitochondrial permeability transition).
The experiment is performed with and without inhibitor. A compound that acts to inhibit the mitochondrial pore opening will result in a greater requirement for calcium to reach the transition point. The results are normalised to a positive control (cyclosporin A) in each experiment. The results are shown in column 3 of Table 5 as CRC [10 μM] (ratio vs CsA). The method of digitonin permeabilised whole cell CRC assay is similar to that used by Chiara et al. (PLoS One, March, 3, 3, e1852 (2008)).

cyclophilin A = cyclophilin A (Homo sapiens (Human), UniProt P62937); assay: Functional peptidyl prolyl isomerase (PPIase) spectrophotometric assay, cyclophilin A; format: biochemical; conditions: first value of CypA/D cell
Source text: (§1) Cyclophilins are enzymes that catalyse the cis-trans isomerisation of peptide bonds to the amino acid proline. This event is important in many biological processes, including protein folding and signal transduction. […] The method to measure this activity and its inhibition is similar to that described by Jankowski (Analytical Biochemistry, 252, 2, 299-307 (1997)). The assay measures the cis to trans isomerisation of a peptide substrate catalysed by a PPlase enzyme using a UV/Vis spectrophotometer. This assay is a manual single cuvette-based assay. A first order rate equation is fitted to the absorbance data to obtain a rate constant. The catalytic rate is calculated from the enzymatic rate minus the background rate. The Ki (the concentration required to produce half maximum inhibition) for an inhibitor is obtained from the rate constant plotted against the inhibitor concentration. Typically, a 6-point dose response curve is obtained from duplicates and a Ki determined. Data are given in Table 5 as Ki [nM] for cyclophilins A and D, expressed in column 2 of Table 5 as Ki (cypA)/Ki (cypD).

cyclophilin D = cyclophilin D (Homo sapiens (Human), UniProt P30405); assay: Functional peptidyl prolyl isomerase (PPIase) spectrophotometric assay, cyclophilin D; format: biochemical; conditions: second value of CypA/D cell; read-out: Ki CypD
Source text: as §1

SH-SY5Y cells = assay: Thapsigargin treated cell death assay in SH-SY5Y cells; format: cell-based, human; conditions: compound at 10 μM, positive = protection from cell death, negative = compound toxicity
Source text: Thapsigargin raises intracellular free calcium (Ca^2+) by potently inhibiting the endoplasmic reticulum Ca-ATPase, which sequesters Ca^2+ from the cytosol. The increased cytosolic Ca^2+ concentration is buffered by mitochondria by exchanging Ca^2+ for K, leading to depolarisation in the inner mitochondrial membrane and permeability transition.
The thapsigargin treated Jurkat cell death assay is a homogeneous 96 well plate based assay for cell death, instigated by the opening of the mitochondrial permeability transition pore (MPTP). The addition of thapsigargin to Jurkat cells results in an influx of calcium, the increase in intracellular calcium will initially be buffered by the mitochondria, but eventually the increasing calcium concentration will result in the opening of the MPTP, resulting in cell death.
CellTox™ Green is a dye which is unable to enter the cell until cell death leads to the loss of membrane integrity. Once this happens the CellTox™ Green enters the cell, binds to the cell's DNA and emits a fluorescent signal. […] Unless otherwise stated, the assay is typically run using a range of three compound concentrations of 1, 3 and 10 μM in triplicate and is read kinetically over a period of 24 hours. Compounds are added 30 minutes before the addition of thapsigargin. Compound only controls and positive control, cyclosporin A (CsA) (3 and 10 μM) are also included in the assay. Results are typically calculated at the 8 hour time point and the kinetic data is also reported.
The assay is carried out as described for the Jurkat cells but using the SH-SY5Y (human neuroblastoma) cell line instead of Jurkat cells. The results are shown in the fourth column of Table 5 (SY5Y [10 μM]% recovery). Positive numbers indicate protection from cell death, negative numbers indicate compound toxicity.

Sequence of cyclophilin A (P62937 whole entry, species assumed): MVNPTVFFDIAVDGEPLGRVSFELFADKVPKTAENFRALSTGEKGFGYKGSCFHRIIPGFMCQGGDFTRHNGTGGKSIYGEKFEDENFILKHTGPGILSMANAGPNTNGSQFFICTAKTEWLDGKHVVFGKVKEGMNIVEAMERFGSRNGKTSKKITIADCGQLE
Sequence of cyclophilin D (P30405 30-207, species assumed): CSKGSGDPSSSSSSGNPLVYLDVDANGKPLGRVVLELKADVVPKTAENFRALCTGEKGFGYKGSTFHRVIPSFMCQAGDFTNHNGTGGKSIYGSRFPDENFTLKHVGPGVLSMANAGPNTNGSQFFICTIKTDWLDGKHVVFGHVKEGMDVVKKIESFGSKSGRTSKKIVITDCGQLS

| Ki (cyclophilin A) [nM] | Ki (cyclophilin D) [nM] | SMILES | CRC [10 μM] [1] | CRC [10 μM] (ratio vs CsA) ([1]; listed as 32) | SYSY [10 μM] % recovery (SH-SY5Y cells; listed as 51) [%] | SYSY [10 μM] % recovery (SH-SY5Y cells; listed as 52) [%] | CRC [10 μM] (ratio vs CsA) [1] |
| --- | --- | --- | --- | --- | --- | --- | --- |
| 2200 | 4900 | C[C@@H]1NC(=O)[C@@H](CC2CCCNC2)OC(=O)C(C)(C)/C=C/c2ccc3ccc(nc3c2)N(C)N(C)C(=O)[C@@H]2CCCN(N2)C1=O (single isomer, unassigned) [Compound (32)] | 5 | 0.20 |  |  |  |
| 550 | 1300 | CC(C)[C@H]1OC(=O)C(C)(C)/C=C/c2ccc3ccc(nc3c2)N(C)NC(=O)[C@@H]2CCCN(N2)C(=O)[C@H](C)NC1=O [Compound (3)] |  |  |  |  | 0.5 |
| 5.3 | 8.7 | CC(=O)N1NC(=O)[C@@H]2CCCN(N2)C(=O)[C@H](C)NC(=O)[C@H](C(C)C)OC(=O)C(C)(C)/C=C/c2ccc3ccc1nc3c2 [Compound (10)] |  |  |  |  |  |
| 1.7 | 9.9 | CC(C)C(=O)N1CCC2(/C=C/c3ccc4ccc(nc4c3)N(C)NC(=O)[C@@H]3CCCN(N3)C(=O)[C@H](C)NC(=O)[C@H](C(C)C)OC2=O)CC1 [Compound (15)] | 38 |  |  |  | 1 |
| 19 | 12 | C[C@@H]1NC(=O)[C@H](C2CCCC2)CC(=O)C(C)(C)/C=C/c2ccc3ccc(nc3c2)N(C)NC(=O)[C@@H]2CCCN(N2)C1=O [Compound (24)] |  |  |  |  |  |
| 5900 |  | C[C@@H]1NC(=O)[C@@H](CC2CCCN(C)C2)OC(=O)C(C)(C)/C=C/c2ccc3ccc(nc3c2)N(C)NC(=O)[C@@H]2CCCN(N2)C1=O (stereo partly shown) [Compound (28)] | 5 |  |  |  | 0.17 |
| 51 | 170 | CC(=O)N1CCC[C@@H](C[C@@H]2OC(=O)C(C)(C)/C=C/c3ccc4ccc(nc4c3)N(C)NC(=O)[C@@H]3CCCN(N3)C(=O)[C@H](C)NC2=O)C1 [Compound (29)] | 20 |  |  |  | 0.67 |
| 1.2 | 5.8 | C[C@@H]1NC(=O)[C@H](Cc2ccc(O)cc2)OC(=O)C(C)(C)/C=C/c2ccc3ccc(nc3c2)N(C)NC(=O)[C@@H]2CCCN(N2)C1=O [Compound (42)] | 25 |  |  |  | 0.8 |
| 590 | 140 | C[C@@H]1NC(=O)[C@H](CN2CCCCC2)OC(=O)C(C)(C)/C=C/c2ccc3ccc(nc3c2)N(C)NC(=O)[C@@H]2CCCN(N2)C1=O [Compound (44)] | 5 |  |  |  | 0.33 |
| 61 | 140 | CC(C)C(=O)N1CCN(C[C@@H]2OC(=O)C(C)(C)/C=C/c3ccc4ccc(nc4c3)N(C)NC(=O)[C@@H]3CCCN(N3)C(=O)[C@H](C)NC2=O)C[C@@H]1C [Compound (45)] | 15 |  |  |  | 0.60 |
| 27 | 21 | CC(C)NC(=O)c1ccc(C[C@@H]2OC(=O)C(C)(C)/C=C/c3ccc4ccc(nc4c3)N(C)NC(=O)[C@@H]3CCCN(N3)C(=O)[C@H](C)NC2=O)cc1 [Compound (47)] | 17.5 |  |  |  | 1.00 |
| 80 | 54.5 | C[C@@H]1NC(=O)[C@H](CC2CCNCC2)OC(=O)C(C)(C)/C=C/c2ccc3ccc(nc3c2)N(C)NC(=O)[C@@H]2CCCN(N2)C1=O [Compound (58)] | 8.3 |  |  |  | 0.38 |
| 37 | 38 | C[C@@H]1NC(=O)[C@H](C2CCOCC2)OC(=O)C(C)(C)/C=C/c2ccc3ccc(nc3c2)N(C)NC(=O)[C@@H]2CCCN(N2)C1=O [Compound (59)] | 17.5 |  |  |  | 0.85 |
| 5.6 | 9.6 | CC(C)[C@@H]1OC(=O)C(C)(C)/C=C/c2ccc3ccc(nc3c2)N(C)NC(=O)[C@@H]2CCCN(N2)C(=O)[C@H](CCC(=O)O)NC1=O [Compound (62)] |  |  |  |  |  |
| 320 | 150 | CC(C)[C@H]1CC(=O)C(C)(C)/C=C/c2ccc3ccc(nc3c2)N(C)NC(=O)[C@@H]2CCCN(N2)C(=O)[C@H](C)NC1=O [Compound (82)] |  |  |  |  |  |

The next lines start with the compound.

| SMILES | Ki (cyclophilin A) [nM] | Ki (cyclophilin D) [nM] | CRC [10 μM] [1] | CRC [10 μM] (ratio vs CsA) ([1]; listed as 32) | SYSY [10 μM] % recovery (SH-SY5Y cells; listed as 51) [%] | SYSY [10 μM] % recovery (SH-SY5Y cells; listed as 52) [%] | CRC [10 μM] (ratio vs CsA) [1] |
| --- | --- | --- | --- | --- | --- | --- | --- |
| C[C@@H]1NC(=O)C(Cc2cccc(N)n2)OC(=O)C(C)(C)/C=C/c2ccc3ccc(nc3c2)N(C)NC(=O)[C@@H]2CCCN(N2)C1=O (single isomer, unassigned) [Compound (51)] |  |  |  |  | 37 |  |  |
| C[C@@H]1NC(=O)C(Cc2cccc(N)n2)OC(=O)C(C)(C)/C=C/c2ccc3ccc(nc3c2)N(C)NC(=O)[C@@H]2CCCN(N2)C1=O (single isomer, unassigned) [Compound (52)] |  |  |  |  |  | 35 |  |
| CC(C)[C@@H]1OC(=O)C(C)(C)/C=C/c2ccc3ncc(nc3c2)N(C)NC(=O)[C@@H]2CCCN(N2)C(=O)[C@H](C)NC1=O [Compound (4)] | 3.3 | 13 | 16.4 |  |  |  |  |
| CC(C)[C@@H]1OC(=O)C(C)(C)CCc2ccc3ccc(nc3c2)N(C)NC(=O)[C@@H]2CCCN(N2)C(=O)[C@H](C)NC1=O [Compound (5)] | > 10000 | > 10 |  |  |  |  |  |
| CC(C)[C@@H]1OC(=O)C(C)(C)/C=C/c2ccc3ccc(nc3c2)N(CCCO)NC(=O)[C@@H]2CCCN(N2)C(=O)[C@H](C)NC1=O [Compound (7)] | 36.7 | 8.1 |  |  |  |  |  |
| CC(C)[C@@H]1OC(=O)C(C)(C)/C=C/c2ccc3ccc(nc3c2)N2CCCN2C(=O)[C@@H]2CCCN(N2)C(=O)[C@H](C)NC1=O [Compound (8)] | 13.9 | 15 |  |  |  |  |  |
| C[C@@H]1NC(=O)[C@H](Cc2ccc(C(=O)O)cc2)OC(=O)C(C)(C)/C=C/c2ccc3ccc(nc3c2)N(C)N(C)C(=O)[C@@H]2CCCN(N2)C1=O [Compound (11)] | 280 | 83 | 20 |  |  |  | 0.80 |
| CC(C)[C@@H]1OC(=O)C2(/C=C/c3ccc4ccc(nc4c3)N(C)NC(=O)[C@@H]3CCCN(N3)C(=O)[C@H](C)NC1=O)COCOC2 [Compound (18)] | 260 | 370 | 10 |  |  |  | 0.33 |
| CC(C)[C@@H]1NCC(C)(C)/C=C/c2ccc3ccc(nc3c2)N(C)NC(=O)[C@@H]2CCCN(N2)C(=O)[C@H](C)NC1=O [Compound (20)] | 100 | 140 | 22.5 |  |  |  | 0.57 |
| CC(C)[C@H]1C(=O)N[C@@H](C)C(=O)N2CCC[C@H](N2)C(=O)NN(C)c2ccc3ccc(cc3n2)/C=C/C(C)(C)CN1C [Compound (23)] | 92 | 260 | 12.5 |  |  |  | 0.38 |
| CC(C)[C@@H]1OC(=O)C(C)(C)/C=C/c2ccc3ccc(nc3c2)N(C)NC(=O)[C@@H]2CCCN(N2)C(=O)[C@@H](Cc2ccccc2)NC1=O [Compound (77)] |  | 700 | 15 |  |  |  | 0.39 |
| CC(C)[C@@H]1OC(=O)C(C)(C)/C=C/c2ccc3ccc(nc3c2)N(C)NC(=O)[C@@H]2CCCN(N2)C(=O)[C@H](Cc2ccncc2)NC1=O [Compound (78)] |  | 360 | >10,000 |  |  |  |  |

From patent US20250243219A1, “MACROCYCLIC COMPOUNDS AND USES THEREOF” (Cypralis Limited, priority 2022, published 2025)
